Converted amounts (≈) assume the structure as drawn. Read-outs that look alike come from different tables or passages of the source.
Assays:
[1] = system: multi-drug resistant breast carcinoma cell line NCI/ADR; assay: SRB cytotoxicity assay, NCI/ADR; type: cell-based, human
Procedure: (§1) Compounds of the invention may be screened for cytotoxicity using conventional assays well known to those skilled in the art. For example, cytotoxicity of the compounds may be determined by the SRB assay as disclosed in Skehan et al., J. Natl. Cancer Inst. 82:1107-1112 (1990), which is incorporated herein by reference. In the SRB assay, the following cultured cells are trypsinized, counted and diluted to the following concentrations per 100 μl with growth medium: MCF-7, 5000; NCI/ADR-Res, 7500; NCI-H460, 5000; A549, 5000; Skov3, 7500; and SF-268, 7500. The cells are seeded at 100 μl/well in 96-well microtiter plates. Twenty-four hours later, 100 μl of a test epothilone compound of the invention (ranging in concentration from 1000 nM to 0.001 nM diluted in growth medium) is added to each well. After incubation, with the compound for a period of days, the cells are fixed with 100 μl of 10% trichloroacetic acid (“TCA”) at 4 degrees for 1 hour, and stained with 0.2% sulforhodamine B (SRB)/1% acetic acid, and the bound SRB is then extracted with 200 μl of 10 mM Tris base. The amount of bound dye is determined by OD 515 nm, which correlates to the total cellular protein contents. The data is analyzed using standard statistical methodologies (such as those available with the software sold as KALEIDA GRAPH® by Synergy Software of Reading, Pa.) and the IC50s are calculated.
(§2) Human breast carcinoma cell line MCF-7, multi-drug resistant breast carcinoma cell line NCI/ADR, were obtained from the National Cancer Institute. Human non-small cell lung cancer cell line A549 and human ovarian cancer cell line SKOV-3 were obtained from American Type Culture Collection (Manassas, Va.). All cell lines were maintained in RPMI-1640 medium (Gibco/BRL, Rockville, Md.) supplemented with 2 mM L-glutamine, 25 mM HEPES and 10% FBS (Hyclone, Logan, Utah). Cells were maintained in a humidified incubator at 37° C. in 5% CO2.
(§3) Tumor cells were seeded in 100 μl at 5000 (MCF-7), 7500 (NCI/ADR), 5000 (A549) and 7500 (SKOV3) cells per well in 96-well plates. Cells were allowed to adhere for 24 hours. Each compound ranging from 0.001 to 1000 nM in 100 μl was added to cells in duplicate wells. After 3 days, cells were fixed at 4° C. for 1 hour with 10% trichloroacetic acid and then stained with 0.2% sulforhodamine B (SRB)/1% acetic acid for 20 minutes at room temperature. The unbound dye was rinsed away with 1% acetic acid, and the bounded SRB was then extracted with 200 μl of 10 mM Tris base. The absorbance was measured at 515 nm using a 96-well microtiter plate reader (Spectra Max 250, Molecular Devices). The IC50 values were calculated using a KaleidaGraph program. The experiments were performed twice.

[2] = system: human ovarian cancer cell line SKOV-3; assay: SRB cytotoxicity assay, SKOV3; type: cell-based
Procedure: as §1, §2, §3

[3] = system: Human non-small cell lung cancer cell line A549; assay: SRB cytotoxicity assay, A549; type: cell-based
Procedure: as §1, §2, §3

[4] = system: Human breast carcinoma cell line MCF-7; assay: SRB cytotoxicity assay, MCF-7; type: cell-based
Procedure: as §1, §2, §3

CYP2C19 = target: T1, CYP2C19 (Homo sapiens, UniProt P33261); assay: Cytochrome P450 inhibition, CYP2C19; type: in vitro ADME
T1 construct: purchased BD GenTest, Woburn, Mass

CYP2C9 = target: T2, CYP2C9 (Homo sapiens, UniProt P11712); assay: Cytochrome P450 inhibition, CYP2C9; type: in vitro ADME
T2 construct: purchased BD GenTest, Woburn, Mass

[5] = Plasma protein binding (ultrafiltration); type: in vitro ADME; conditions: mouse or human plasma (species not given), 37° C.
Procedure: Plasma protein binding studies were performed as follows. Compounds were dissolved in DMSO, then diluted into either fresh or thawed samples of mouse or human plasma and incubated at 37° C. Time points of 50 μL were mixed with 100 μl of acetonitrile and centrifuged at ˜14000 rpm for 3 minutes. A 100 μL aliquot was removed from the supernatant and set aside for analysis to indicate compound in the total fraction. The remaining supernatant was transferred onto a Microcon ultrafiltration device fitted with a YM10 membrane and centrifuged to separate protein-bound material. A 50 μL aliquot of the protein-free filtrate was mixed with 100 μL of acetonitrile, centrifuged at ˜14000 rpm for 3 minutes, then 100 μL of the supernatant was collected and analyzed to determine the amount of compound not protein bound. The amount of compound in the total sample and in the protein-free fraction were determined by HPLC analysis against authentic standards.

[6] = Half-life in human plasma; conditions: fresh human plasma
Procedure: (§4) Half-lives of compounds in fresh mouse and human plasma were determined by dissolving the compounds in DMSO and adding aliquots to samples of mouse or human plasma. At Time Zero, aliquotted 75 μl from each sample and added 150 μl of acetonitrile. Centrifuged the white precipitate at 13500 rpm for 3 minutes. Transferred all the clear supernatant into another microcentrifuge tube and repeated the centrifuging step (13500 rpm/3 min). Carefully pipetted 150 μl of the clear supernatant into labeled HPLC sample tubes and tried to avoid pipetting any protein pellets. The samples were analyzed by HPLC to measure remaining compound at each time point by comparison with authentic standards.

[7] = Half-life in mouse plasma
Procedure: as §4, with “Half-lives of compounds in fresh mouse and human plasma were determined by dissolving the compounds in DMSO and adding aliquots to samples of mouse or human plasma.” left out

[8] = Compound solubility in phosphate-buffered saline; type: physicochemical; conditions: aqueous buffer, kinetic from dmso stock; 5 μL of 20 mg/mL DMSO stock in 95 μL phosphate-buffered saline, 0.45 micron filter, HPLC
Procedure: Compound solubility was determined as follows: 5 μL of stock solution (at 20 mg/mL in DMSO) was added to 95 μL of phosphate-buffered saline. After being vortexed for about 10 seconds, the solution/suspension was filtered through a 0.45 micron filter and the amount of analyte was quantitated by HPLC. Solubilities (mg/mL) determined were as follows: epothilone D, <0.06; trans-9,10-dehydroepothilone D, <0.06; 21-OH-26-F3-trans-9,10-dehydroepothilone D, 0.1; 21-amino-trans-9,10-dehydroepothilone D, >0.6; 21-amino-26-F3-trans-9,10-dehydroepothilone D, >0.6; 26-F3-trans-9,10-dehydroepothilone D, <0.06; 21-OH-trans-9,10-dehydroepothilone D, 0.1; KOSN 1635, <0.02; KOSN 1632, 0.12.

CYP3A4 = target: T3, CYP3A4 (Homo sapiens, UniProt P08684); assay: Cytochrome P450 inhibition (BD GenTest kit, BFC substrate), CYP3A4; type: in vitro ADME
T3 construct: purchased BD GenTest, Woburn, Mass
Excerpt: Following the procedure of Examples 39 (when R=methyl) and 42 (when R=CF3), the additional compounds shown in Table 2 were made by replacing (2-(tert-butyldimethyl-silyloxy)-methylthiazol-4-yl)methyltri-n-butyl-phosphonium chloride with the corresponding phosphonium chloride. Cytotoxicity data (Table 2) was obtained as described in Example 48. Cytochrome P450 inhibition data (Table 3) was obtained using the initial rate method against BFC substrate.
Cytochrome P450 inhibition measurements were performed using a commercially-available kit (BD GenTest, Woburn, Mass.), using BFC as substrate against CYP3A4.

[9] = Table 2, as described in Example 48, read-out: IC50 (nM) NCI/ADR
[10] = Table 2, as described in Example 48, read-out: IC50 (nM) Skov
[11] = Table 2, as described in Example 48, read-out: IC50 (nM) A549
[12] = Table 2, as described in Example 48, read-out: IC50 (nM) MCF-7
[13] = Homo sapiens, NCI/ADR-RES, 72 h, Table 1, 3 days, SRB, read-out: IC50 NCI/ADR
[14] = Homo sapiens, SK-OV-3, 72 h, Table 1, 3 days, SRB, read-out: IC50 SKOV3
[15] = Homo sapiens, A549, 72 h, Table 1, 3 days, SRB, read-out: IC50 A549
[16] = Homo sapiens, MCF7, 72 h, Table 1, 3 days, SRB, read-out: IC50 MCF-7

T3 sequence (P08684 whole entry): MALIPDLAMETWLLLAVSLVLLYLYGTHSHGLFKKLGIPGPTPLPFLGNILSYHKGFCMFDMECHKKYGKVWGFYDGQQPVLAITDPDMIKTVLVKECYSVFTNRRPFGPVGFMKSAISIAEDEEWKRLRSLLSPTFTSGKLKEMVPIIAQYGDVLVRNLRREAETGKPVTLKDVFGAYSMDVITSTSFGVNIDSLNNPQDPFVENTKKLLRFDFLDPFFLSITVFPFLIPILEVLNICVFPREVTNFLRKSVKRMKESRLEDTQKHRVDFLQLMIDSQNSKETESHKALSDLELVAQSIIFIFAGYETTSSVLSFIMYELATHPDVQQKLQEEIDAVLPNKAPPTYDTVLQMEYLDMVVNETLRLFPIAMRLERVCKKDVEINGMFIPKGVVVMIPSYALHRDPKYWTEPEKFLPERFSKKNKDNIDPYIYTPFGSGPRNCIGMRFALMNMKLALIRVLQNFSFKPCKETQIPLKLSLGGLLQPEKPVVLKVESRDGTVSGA
T1 sequence (P33261 whole entry): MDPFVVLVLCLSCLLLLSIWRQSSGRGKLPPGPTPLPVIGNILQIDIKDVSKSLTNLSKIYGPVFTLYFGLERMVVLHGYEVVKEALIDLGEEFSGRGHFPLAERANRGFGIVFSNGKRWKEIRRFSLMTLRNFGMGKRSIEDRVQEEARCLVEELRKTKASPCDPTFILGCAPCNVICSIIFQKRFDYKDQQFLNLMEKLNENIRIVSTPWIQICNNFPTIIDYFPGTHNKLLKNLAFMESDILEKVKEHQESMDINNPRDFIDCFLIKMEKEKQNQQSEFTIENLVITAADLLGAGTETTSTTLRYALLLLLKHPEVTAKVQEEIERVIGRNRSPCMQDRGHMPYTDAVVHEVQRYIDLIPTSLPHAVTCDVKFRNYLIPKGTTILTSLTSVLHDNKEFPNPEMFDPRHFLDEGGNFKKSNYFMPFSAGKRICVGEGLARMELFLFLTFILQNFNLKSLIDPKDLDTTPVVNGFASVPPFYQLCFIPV
T2 sequence (P11712 whole entry): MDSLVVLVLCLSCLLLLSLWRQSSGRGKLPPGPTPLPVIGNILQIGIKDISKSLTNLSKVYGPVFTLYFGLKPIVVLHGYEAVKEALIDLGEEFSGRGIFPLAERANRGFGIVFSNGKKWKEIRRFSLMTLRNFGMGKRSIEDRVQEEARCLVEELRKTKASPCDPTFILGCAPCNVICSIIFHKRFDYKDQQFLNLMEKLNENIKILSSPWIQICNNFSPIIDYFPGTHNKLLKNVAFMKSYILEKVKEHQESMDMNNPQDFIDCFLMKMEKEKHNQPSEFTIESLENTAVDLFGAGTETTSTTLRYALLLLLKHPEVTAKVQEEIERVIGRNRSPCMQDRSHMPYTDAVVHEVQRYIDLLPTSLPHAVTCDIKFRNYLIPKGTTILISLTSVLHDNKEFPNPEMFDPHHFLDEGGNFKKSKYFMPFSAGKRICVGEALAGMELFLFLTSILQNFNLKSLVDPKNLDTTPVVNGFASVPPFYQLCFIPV

Compound	IC50 [1, 9] [nM]	IC50 [2, 10] [nM]	IC50 [3, 11] [nM]	IC50 [4, 12] [nM]	IC50 [1, 13] [nM]	IC50 [2, 14] [nM]	IC50 [3, 15] [nM]	IC50 [4, 16] [nM]	solubility [8] [µg/mL]	other results
C/C1=C/C[C@@H](/C(C)=C/n2nnc3ccccc32)OC(=O)C[C@H](O)C(C)(C)C(=O)[C@H](C)[C@@H](O)[C@@H](C)/C=C/C1 [KOSN-1674]	180	50	42	34						
C/C1=C/C[C@@H](/C(C)=C/c2csc(CN3CCOCC3)n2)OC(=O)C[C@H](O)C(C)(C)C(=O)[C@H](C)[C@@H](O)[C@@H](C)/C=C/C1 [KOSN-1727]	410	490	420	390						
C/C1=C/C[C@@H](/C(C)=C/c2ccc(CO)cn2)OC(=O)C[C@H](O)C(C)(C)C(=O)[C@H](C)[C@@H](O)[C@@H](C)/C=C/C1 [KOSN-1703]	7.1	4.5	2.4	0.61						IC50 (CYP2C19): 10200 nM; IC50 (CYP2C9): 4000 nM
C/C1=C/C[C@@H](/C(C)=C/c2cc(C)on2)OC(=O)C[C@H](O)C(C)(C)C(=O)[C@H](C)[C@@H](O)[C@@H](C)/C=C/C1 [KOSN-1724]	6.1	5.3	5.3	2.5						IC50 (CYP2C19): 10900 nM; IC50 (CYP2C9): 12900 nM
C/C1=C/C[C@@H](/C(C)=C/c2csc(C)n2)OC(=O)C[C@H](O)C(C)(C)C(=O)[C@H](C)[C@@H](O)[C@@H](C)/C=C/C1 (relative stereo) [9,10-dehydroepothilone D, trans-9,10-dehydroepothilone D]					6.2	6.2	4.7	2	< 60	IC50 (CYP2C19; human): 2000 nM; percentage of compound protein bound [5]: 96.6%; half-life [6]: > 1440 min; half-life ([7]; frozen mouse plasma): 47 min; IC50 (CYP3A4): 1600 nM; IC50 (CYP2C9; human): 10800 nM
COc1ccnc(/C=C(\C)[C@@H]2C/C=C(/C)C/C=C/[C@H](C)[C@H](O)[C@@H](C)C(=O)C(C)(C)[C@@H](O)CC(=O)O2)c1 [KOSN-1756]	4.9	4	4	2.1						IC50 (CYP2C19): 1900 nM; IC50 (CYP2C9): 7100 nM
C/C1=C/C[C@@H](/C(C)=C/c2csc(C)n2)OC(=O)C[C@H](O)C(C)(C)C(=O)[C@H](C)[C@@H](O)[C@@H](C)CCC1 [Epothilone D, Desoxyepothilone B, reference compound]					23	39	25	6.8	< 60	IC50 (CYP2C19; human): 1600 to 3400 nM; percentage of compound protein bound [5]: 98.5%; half-life [6]: > 1440 min; half-life ([7]; fresh mouse plasma): 49 min; IC50 (CYP3A4): 2400 nM; IC50 (CYP2C9; human): 9000 to 12000 nM
C/C1=C/C[C@@H](/C(C)=C/c2ccccn2)OC(=O)C[C@H](O)C(C)(C)C(=O)[C@H](C)[C@@H](O)[C@@H](C)/C=C/C1 [KOSN 1632, 17-des(2-methyl-4-thiazolyl)-17-(2-pyridyl)-9,10-dehydropeothilone D]					4.6	4.4	3.3	0.87	120 (≈ 256 µM)	IC50 (CYP2C19; human): 3050 nM; percentage of compound protein bound [5]: 89.4%; half-life [6]: > 1440 min; half-life ([7]; fresh mouse plasma): 28 min; IC50 (CYP3A4): 2520 nM; IC50 (CYP2C9; human): 15000 nM
C/C(=C\c1csc(CN)n1)[C@@H]1C/C=C(/C(F)(F)F)C/C=C/[C@H](C)[C@H](O)[C@@H](C)C(=O)C(C)(C)[C@@H](O)CC(=O)O1 [21-amino-9,10-dehydro-26-trifluoroepothilone D]					330	40	35	9.7	> 600	
COC(=O)c1ccc(/C=C(\C)[C@@H]2C/C=C(/C)C/C=C/[C@H](C)[C@H](O)[C@@H](C)C(=O)C(C)(C)[C@@H](O)CC(=O)O2)nc1 [KOSN-1765]	360	220	350	44						
C/C1=C/C[C@@H](/C(C)=C/c2c[nH]cn2)OC(=O)C[C@H](O)C(C)(C)C(=O)[C@H](C)[C@@H](O)[C@@H](C)/C=C/C1 [KOSN-1712]	220	37	31	20						
C/C1=C/C[C@@H](/C(C)=C/c2cccnc2)OC(=O)C[C@H](O)C(C)(C)C(=O)[C@H](C)[C@@H](O)[C@@H](C)/C=C/C1 [KOSN-1690]	110	39	38	35						
C/C1=C/C[C@@H](/C(C)=C/c2ccc3ccccc3n2)OC(=O)C[C@H](O)C(C)(C)C(=O)[C@H](C)[C@@H](O)[C@@H](C)/C=C/C1 [17-des(2-methyl-4-thiazolyl)-17-(2-quinolyl)-9,10-dehydropeothilone D]					24	19	25	8.9		
